Where a name gives a salt, the structure may show the parent alone.
Row | SMILES | melting point
1 | COc1ccc(C2=NN(c3ccc(C(=O)N4CCN(CC(=O)N(C)C)CC4)cc3)C(=O)[C@@H]3CC=CC[C@H]23)cc1OC.Cl | 93 to 94 °C
2 | COc1ccc(C2=NN(c3ccc(C(=O)N4CCN(CC(=O)N5CCOCC5)CC4)cc3)C(=O)[C@@H]3CC=CC[C@H]23)cc1OC.Cl | 168 to 169 °C
3 | COc1ccc(C2=NN(c3ccc(C(=O)N4CCN(CC(=O)N5CCCC5)CC4)cc3)C(=O)[C@@H]3CC=CC[C@H]23)cc1OC.Cl | 160 to 161 °C
4 | COc1ccc(C2=NN(c3ccc(C(=O)N4CCN(CCN(C)C)CC4)cc3)C(=O)C3CC=CCC23)c2c1OC(C)(C)C2 (as salt: hydrochloride) [Compound 14, (4aS,8aR)-2-{4-[4-(2-Dimethylamino-ethyl)-piperazine-1-carbonyl]-phenyl}-4-(7-methoxy-2,2-dimethy-2,3-dihydro-benzofuran-4-yl)-4a,5,8,8a-tetrahydro-2H-phthalazin-1-one dihydrochloride] | 245 °C (dec.)
5 | COc1ccc(C2=NN(Cc3ccc(C(=O)N4CCN(CCN5CCOCC5)CC4)cc3)C(=O)[C@H]3CC=CC[C@@H]23)c2c1OC(C)(C)C2.Cl.Cl (relative stereo) | 210 to 211 °C
6 | COc1ccc(C2=NN(Cc3ccc(C(=O)N4CCN(CCCN(C)C)CC4)cc3)C(=O)[C@H]3CC=CC[C@@H]23)c2c1OC(C)(C)C2.Cl.Cl (relative stereo) | 247 to 249 °C
7 | COc1ccc(C2=NN(Cc3ccc(C(=O)N4CCN(c5cnccn5)CC4)cc3)C(=O)[C@H]3CC=CC[C@@H]23)c2c1OC(C)(C)C2.Cl.Cl (relative stereo) | 124 to 126 °C
8 | CCOc1ccc(C2=NN(c3ccc(S(=O)(=O)N4CCN(c5ccccn5)CC4)cc3)C(=O)[C@H]3CC=CC[C@@H]23)cc1OCC (relative stereo) [Compound 6, (cis)-4-(3,4-Diethoxyphenyl)-2-[4-(4-pyridin-2-yl-piperazine-1-sulfonyl)-phenyl]-4a,5,8,8a-tetrahydro-2H-phthalazin-1-one] | 181 to 182 °C

More lines, now with the values ahead:

Row | melting point | SMILES
9 | 146 to 147 °C | CCOc1ccc(C2=NN(c3ccc(C(=O)N4CCN(c5ccccc5)CC4)cc3)C(=O)[C@@H]3CC=CC[C@H]23)cc1OCC.Cl
10 | 255 °C (dec.) | CCOc1ccc(C2=NN(c3ccc(C(=O)N4CCN(CCN5CCOCC5)CC4)cc3)C(=O)[C@@H]3CC=CC[C@H]23)cc1OCC.Cl.Cl
11 | 248 °C (dec.) | CCOc1ccc(C2=NN(c3ccc(C(=O)N4CCN(CCCN(C)C)CC4)cc3)C(=O)[C@@H]3CC=CC[C@H]23)cc1OCC.Cl.Cl
12 | 117 to 118 °C | CCOc1ccc(C2=NN(c3ccc(C(=O)N4CCN(c5ccc([N+](=O)[O-])cn5)CC4)cc3)C(=O)C3CC=CCC23)cc1OCC (as salt: hydrochloride) [Compound 18, (4aS,8aR)-4-(3,4-Diethoxyohenyl)-2-(4-{1-[4-(5-nitro-pyridin-2-yl)-piperazin-1-yl]-methanoyl}-phenyl)-4a,5,8,8a-tetrahydro-2H-phthalazin-1-one hydrochloride]
13 | 183 to 184 °C | CCOc1ccc(C2=NN(c3ccc(C(=O)N4CCN(c5ccccn5)CC4)cc3)C(=O)[C@@H]3CC=CC[C@H]23)cc1OCC [Compound 2, (4aS,8aR)-4-(3,4-Diethoxyphenyl)-2-{4-[1-(4-pyridin-2-yl-piperazin-1-yl)-methanoyl]-phenyl}-4a,5,8,8a-tetrahydro-2H-phthalazin-1-one]
14 | 114 to 115 °C | CCOc1ccc(C2=NN(c3ccc(C(=O)N4CCN(C(=O)c5ccco5)CC4)cc3)C(=O)[C@@H]3CC=CC[C@H]23)cc1OCC [Compound 4, (4aS,8aR)-4-(3,4-Diethoxyphenyl)-2-(4-{1-[4-(1-furan-2-yl-methanoyl)-piperazin-1-yl]-methanoyl}-phenyl)-4a,5,8,8a-tetrahydro-2H-phthalazin-1-one]
